Source: US20150105252A1, “SUBSTITUTED PYRAZOLES AS HERBICIDES” (E I DU PONT DE NEMOURS AND COMPANY, priority 2013, published 2015)

Legend:
waterhemp [1] = test: Test C postemergence; format: in vivo, Amaranthus rudis; details: for Waterhemp plant response rating / Plant response rating, Waterhemp: postemergence; for Waterhemp plant response rating: scale 0 to 100
In short: (§1)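 Herbicidal effect is expressed as percent visual control (0–100) judged against untreated plants 13 to 15 days after treatment in the greenhouse. Preemergence pots contained seeds in a soil–sand blend; postemergence plants, 2–18 cm tall, grew in peat-based planting medium.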

crabgrass, large = test: Test C preemergence; format: in vivo, Digitaria sanguinalis
In short: as §1

johnsongrass = test: Test C postemergence; format: in vivo, Sorghum halepense; details: for Plant response rating (scale of 0 to 100 where 0 is no effect and 100 is complete control), Johnsongrass: 31 g ai/ha, visually evaluated after 13 to 15 days; for Johnsongrass plant response rating / Plant response rating, Johnsongrass: postemergence; for Johnsongrass plant response rating: 62 g ai/ha, scale 0 to 100
In short: as §1

foxtail, giant [2] = test: Test A preemergence; format: in vivo, Setaria faberii
In short: (§2)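 Visual injury rating, 0–100 (0 no effect, 100 complete control), vs untreated controls ~10 days after treatment in greenhouse. Pre: directed soil spray on seeded loam/sand. Post: 2–10 cm plants, 1–2 leaf stage. Formulation: non-phytotoxic solvent mix + surfactant.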

foxtail, giant [3] = test: Test A postemergence; format: in vivo, Setaria faberii
In short: as §2

waterhemp [4] = test: Test C preemergence; format: in vivo, Amaranthus rudis
In short: as §1

foxtail, giant [5] = test: Test C preemergence; format: in vivo, Setaria faberii
In short: as §1

foxtail, giant [6] = test: Test C postemergence; format: in vivo, Setaria faberii; details: for Plant response rating (scale of 0 to 100 where 0 is no effect and 100 is complete control), Foxtail, Giant: 31 g ai/ha, visually evaluated after 13 to 15 days; for Foxtail, Giant plant response rating / Plant response rating, Foxtail, Giant: postemergence; for Foxtail, Giant plant response rating: 62 g ai/ha, scale 0 to 100
In short: as §1

morningglory = test: Test A postemergence; format: in vivo, Ipomoea spp.
In short: as §2

chickweed = test: Test C postemergence; format: in vivo, Stellaria media; details: for Plant response rating (scale of 0 to 100 where 0 is no effect and 100 is complete control), Chickweed: 31 g ai/ha, visually evaluated after 13 to 15 days; for Chickweed plant response rating / Plant response rating, Chickweed: postemergence; for Chickweed plant response rating: 62 g ai/ha, scale 0 to 100
In short: as §1

ducksalad = test: Test B flood; format: in vivo, Heteranthera limosa; details: 250 g ai/ha, visual rating on 0 to 100 scale (0 no effect, 100 complete control), 13 to 15 days
In short: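 Response scored visually, 0–100 relative to controls, 13–15 days after the compound was applied into paddy water; plants were at the 2-leaf stage in pots kept flooded to 3 cm.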

galium = test: Test C postemergence; format: in vivo, Galium aparine; details: for Plant response rating (scale of 0 to 100 where 0 is no effect and 100 is complete control), Galium: 31 g ai/ha, visually evaluated after 13 to 15 days; for Galium plant response rating / Plant response rating, Galium: postemergence; for Galium plant response rating: 62 g ai/ha, scale 0 to 100
In short: as §1

oat, wild = test: Test C postemergence; format: in vivo, Avena fatua; details: for Plant response rating (scale of 0 to 100 where 0 is no effect and 100 is complete control), Oat, Wild: 31 g ai/ha, visually evaluated after 13 to 15 days; for Oat, Wild plant response rating / Plant response rating, Oat, Wild: postemergence; for Oat, Wild plant response rating: 62 g ai/ha, scale 0 to 100
In short: as §1

[7] = 125 g ai/ha, scale 0 to 100, 0 no effect, 100 complete control
[8] = Preemergence, 16 g ai/ha, scale 0 to 100
[9] = preemergence, 31 g ai/ha, scale 0 to 100 (0 no effect, 100 complete control), 13 to 15 days
[10] = preemergence, 62 g ai/ha, 13 to 15 days, scale 0 to 100, 0 = no effect, 100 = complete control
[11] = preemergence, 125 g ai/ha, scale 0 to 100, 0 is no effect, 100 is complete control
[12] = Postemergence, 500 g ai/ha, visual rating after approx. 10 days, 0 to 100 scale (0 no effect, 100 complete control)
[13] = postemergence, 125 g ai/ha, about 10 days, visual rating on 0 to 100 scale (0 no effect, 100 complete control)
[14] = 250 g ai/ha, scale 0 to 100 (0 no effect, 100 complete control)
[15] = preemergence, 31 g ai/ha, visual rating, scale 0 to 100 (0 no effect, 100 complete control), 13 to 15 days
[16] = preemergence, 62 g ai/ha, scale 0 to 100 (0 no effect, 100 complete control), 13 to 15 days
[17] = preemergence, 125 g ai/ha, 13 to 15 days, scale 0 to 100, 0 = no effect, 100 = complete control
[18] = preemergence, 250 g ai/ha, scale 0 to 100, 0 is no effect, 100 is complete control
[19] = Postemergence, 500 g ai/ha, 0 to 100 scale (0 no effect, 100 complete control)

`CCONC(=O)c1cc(CC)n(Cc2ccnc(C(F)(F)F)c2)n1` [Compound 77] was tested, and the “Plant response rating (scale of 0 to 100), Waterhemp” value (waterhemp [1]; Postemergence, 16 g ai/ha) was 10, the “Plant response rating (scale of 0 to 100 where 0 is no effect and 100 is complete control), Waterhemp” value (waterhemp [1]; Postemergence, 31 g ai/ha, visually evaluated after 13 to 15 days) was 10 and the “Waterhemp plant response rating” value (waterhemp [1]; 62 g ai/ha) was 10. For the same compound, the “Plant response rating, Waterhemp” value (waterhemp [1]; [7]) was 65, the “Plant response rating, Crabgrass, Large” value (crabgrass, large; [8]) was 60 and the “Crabgrass, Large plant response rating” value (crabgrass, large; [9]) was 85. For the same compound, the “Plant response rating, Crabgrass, Large” value (crabgrass, large; [10]) was 100, the “Crabgrass, Large plant response rating” value (crabgrass, large; [11]) was 100 and the “Plant response rating (scale of 0 to 100), Johnsongrass” value (johnsongrass; Postemergence, 16 g ai/ha) was 5. For the same compound, the “Plant response rating (scale of 0 to 100 where 0 is no effect and 100 is complete control), Johnsongrass” value (johnsongrass; Postemergence) was 5, the “Johnsongrass plant response rating” value (johnsongrass) was 5 and the “Plant response rating, Johnsongrass” value (johnsongrass; [7]) was 5. The “Foxtail, Giant plant response rating” value (foxtail, giant [2]; Preemergence, 500 g ai/ha, 0 to 100 scale, 0 no effect, 100 complete control) was 100, the “Foxtail, Giant plant response rating” value (foxtail, giant [2]; preemergence, 125 g ai/ha, visual injury, 0 to 100 scale, approx. 10 days) was 100 and the “Foxtail, Giant plant response rating” value (foxtail, giant [3]; [12]) was 100. The “Foxtail, Giant plant response rating” value (foxtail, giant [3]; [13]) was 90, the “Plant response rating, Waterhemp” value (waterhemp [4]; [8]) was 70 and the “Waterhemp plant response rating” value (waterhemp [4]; [9]) was 98. For the same compound, the “Plant response rating, Waterhemp” value (waterhemp [4]; [10]) was 98, the “Waterhemp plant response rating” value (waterhemp [4]; [11]) was 100 and the “Plant response rating, Foxtail, Giant” value (foxtail, giant [5]; [8]) was 20. The “Foxtail, Giant plant response rating” value (foxtail, giant [5]; [9]) was 80, the “Plant response rating, Foxtail, Giant” value (foxtail, giant [5]; [10]) was 85 and the “Foxtail, Giant plant response rating” value (foxtail, giant [5]; [11]) was 100. The “Plant response rating (scale of 0 to 100), Foxtail, Giant” value (foxtail, giant [6]; Postemergence, 16 g ai/ha) was 5, the “Plant response rating (scale of 0 to 100 where 0 is no effect and 100 is complete control), Foxtail, Giant” value (foxtail, giant [6]; Postemergence) was 5 and the “Foxtail, Giant plant response rating” value (foxtail, giant [6]) was 10. For the same compound, the “Plant response rating, Foxtail, Giant” value (foxtail, giant [6]; [7]) was 20, the “Morningglory plant response rating” value (morningglory; [12]) was 90 and the “Morningglory plant response rating” value (morningglory; [13]) was 100. For the same compound, the “Plant response rating (scale of 0 to 100), Chickweed” value (chickweed; Postemergence, 16 g ai/ha) was 50, the “Plant response rating (scale of 0 to 100 where 0 is no effect and 100 is complete control), Chickweed” value (chickweed; Postemergence) was 50 and the “Chickweed plant response rating” value (chickweed) was 55. The “Plant response rating, Chickweed” value (chickweed; [7]) was 60, the “Plant response rating, Ducksalad” value (ducksalad) was 80 and the “Plant response rating (scale of 0 to 100), Galium” value (galium; Postemergence, 16 g ai/ha) was 5. The “Plant response rating (scale of 0 to 100 where 0 is no effect and 100 is complete control), Galium” value (galium; Postemergence) was 5, the “Galium plant response rating” value (galium) was 15 and the “Plant response rating, Galium” value (galium; [7]) was 20. For the same compound, the “Plant response rating (scale of 0 to 100), Oat, Wild” value (oat, wild; Postemergence, 16 g ai/ha) was 5, the “Plant response rating (scale of 0 to 100 where 0 is no effect and 100 is complete control), Oat, Wild” value (oat, wild; Postemergence) was 5 and the “Oat, Wild plant response rating” value (oat, wild) was 5. The “Plant response rating, Oat, Wild” value (oat, wild; [7]) was 5.
In the case of `CCCNC(=O)c1cc(CCF)n(Cc2ccnc(C(F)(F)F)c2)n1` [Compound 177], the “Plant response rating, Waterhemp” value (waterhemp [1]; [14]) is reported as 65, the “Waterhemp plant response rating” value (waterhemp [1]) is reported as 75 and the “Crabgrass, Large plant response rating” value (crabgrass, large; [15]) is reported as 100. The “Crabgrass, Large plant response rating” value (crabgrass, large; [16]) was 100, the “Plant response rating, Crabgrass, Large” value (crabgrass, large; [17]) was 100 and the “Crabgrass, Large plant response rating” value (crabgrass, large; [18]) was 100. For the same compound, the “Plant response rating (scale of 0 to 100 where 0 is no effect and 100 is complete control), Johnsongrass” value (johnsongrass; Postemergence) was 0, the “Johnsongrass plant response rating” value (johnsongrass) was 0 and the “Plant response rating, Johnsongrass” value (johnsongrass; [14]) was 5. For the same compound, the “Plant response rating, Johnsongrass” value (johnsongrass; [7]) was 5, the “Foxtail, Giant plant response rating (0 to 100 scale)” value (foxtail, giant [2]; preemergence, 125 g ai/ha, visual injury approx. 10 days after treatment) was 100 and the “Foxtail, Giant plant response rating” value (foxtail, giant [2]; preemergence, 500 g ai/ha, visual injury after approx. 10 days, 0 to 100 scale (0 no effect, 100 complete control)) was 100. For the same compound, the “Foxtail, Giant plant response rating” value (foxtail, giant [3]; [19]) was 100, the “Foxtail, Giant plant response rating” value (foxtail, giant [3]; [13]) was 100 and the “Waterhemp plant response rating” value (waterhemp [4]; [15]) was 98. For the same compound, the “Waterhemp plant response rating” value (waterhemp [4]; [16]) was 98, the “Plant response rating, Waterhemp” value (waterhemp [4]; [17]) was 98 and the “Waterhemp plant response rating” value (waterhemp [4]; [18]) was 100. The “Foxtail, Giant plant response rating” value (foxtail, giant [5]; [15]) was 85, the “Foxtail, Giant plant response rating” value (foxtail, giant [5]; [16]) was 98 and the “Plant response rating, Foxtail, Giant” value (foxtail, giant [5]; [17]) was 100. For the same compound, the “Foxtail, Giant plant response rating” value (foxtail, giant [5]; [18]) was 100, the “Plant response rating (scale of 0 to 100 where 0 is no effect and 100 is complete control), Foxtail, Giant” value (foxtail, giant [6]; Postemergence) was 5 and the “Foxtail, Giant plant response rating” value (foxtail, giant [6]) was 10. For the same compound, the “Plant response rating, Foxtail, Giant” value (foxtail, giant [6]; [14]) was 45, the “Plant response rating, Foxtail, Giant” value (foxtail, giant [6]; [7]) was 30 and the “Morningglory plant response rating” value (morningglory; [19]) was 100. The “Morningglory plant response rating” value (morningglory; [13]) was 100, the “Plant response rating (scale of 0 to 100 where 0 is no effect and 100 is complete control), Chickweed” value (chickweed; Postemergence) was 60 and the “Chickweed plant response rating” value (chickweed) was 75. The “Plant response rating, Chickweed” value (chickweed; [14]) was 90, the “Plant response rating, Chickweed” value (chickweed; [7]) was 70 and the “Plant response rating, Ducksalad” value (ducksalad) was 95. For the same compound, the “Plant response rating (scale of 0 to 100 where 0 is no effect and 100 is complete control), Galium” value (galium; Postemergence) was 50, the “Galium plant response rating” value (galium) was 50 and the “Plant response rating, Galium” value (galium; [14]) was 90. The “Plant response rating, Galium” value (galium; [7]) was 80, the “Plant response rating (scale of 0 to 100 where 0 is no effect and 100 is complete control), Oat, Wild” value (oat, wild; Postemergence) was 5 and the “Oat, Wild plant response rating” value (oat, wild) was 5. For the same compound, the “Plant response rating, Oat, Wild” value (oat, wild; [14]) was 40 and the “Plant response rating, Oat, Wild” value (oat, wild; [7]) was 15.
